This test concerns the target T1, human α7 nAChR (Homo sapiens, UniProt P36544).
T1 construct: host or cells: GH4C1 cells (pituitary tumor, immortalized cell line)
The experiment in a line: α7 nAChR FLIPR (Fluorometric Imaging Plate Reader) Ca2+ assay, agonist EC50. The format is cell-based. Conditions: for EC50: GH4C1 cells stably transfected with human α7 nAChR, Fluo-4 Ca2+ fluorescence, Examples 194 to 205 tested as the HCl salt, read-out: pEC50 value (negative logarithm of the agonist EC50) (converted). In a few lines: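 GH4C1 cells stably expressing human α7 nAChR, loaded with 2 μM Fluo-4 for 45–60 min at 37 °C in HEPES buffer pH 7.3 with 2 mM CaCl2 and 2.5 mM probenecid. Peak calcium fluorescence (ex 488, em 510–580 nm) after compound addition fitted for agonist EC50, reported as pEC50.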

T1 sequence (P36544 23-502): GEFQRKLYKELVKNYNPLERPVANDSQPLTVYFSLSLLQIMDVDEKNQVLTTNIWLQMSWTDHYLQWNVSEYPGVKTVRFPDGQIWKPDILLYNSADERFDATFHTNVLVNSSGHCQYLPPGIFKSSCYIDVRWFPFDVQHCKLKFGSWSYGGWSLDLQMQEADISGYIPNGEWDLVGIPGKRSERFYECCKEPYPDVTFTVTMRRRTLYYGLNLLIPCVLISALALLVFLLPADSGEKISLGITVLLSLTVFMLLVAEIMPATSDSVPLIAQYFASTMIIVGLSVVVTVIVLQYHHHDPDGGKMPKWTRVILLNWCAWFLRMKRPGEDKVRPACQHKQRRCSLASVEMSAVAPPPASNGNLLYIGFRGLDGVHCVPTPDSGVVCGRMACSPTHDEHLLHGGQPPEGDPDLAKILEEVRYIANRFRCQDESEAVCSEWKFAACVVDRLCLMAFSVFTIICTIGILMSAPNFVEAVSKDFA

For `CCc1cc(NC(=O)c2ccccc2F)ccc1-c1nnc(NCCCCN(CC)CC)o1` [Example 171, N-[4-(5-{[4-(diethylamino)butyl]amino}-1,3,4-oxadiazol-2-yl)-3-ethylphenyl]-2-fluorobenzamide], the EC50 was no more than 100 nM.
For the compound `CCc1cc(NC(=O)c2ccccc2F)ccc1-c1nnc(NCCCCN2CCOCC2)o1` [Example 172, N-[3-ethyl-4-(5-{[4-(4-morpholinyl)butyl]amino}-1,3,4-oxadiazol-2-yl)phenyl]-2-fluorobenzamide], the EC50 is no more than 100 nM.
As for `CN1CCCN(CCCNc2nnc(-c3ccc(NC(=O)c4ccccc4F)cc3)o2)CC1` [Example 174, 2-fluoro-N-[4-(5-{[3-(4-methylhexahydro-1H-1,4-diazepin-1-yl)propyl]amino}-1,3,4-oxadiazol-2-yl)phenyl]benzamide], the EC50 was no more than 1000 nM.
On to `Cc1ccc(C(=O)Nc2ccc(-c3nnc(NCCCN4CCCCC4)o3)cc2)cc1` [Example 181, 4-methyl-N-[4-(5-{[3-(1-piperidinyl)propyl]amino}-1,3,4-oxadiazol-2-yl)phenyl]benzamide], for which the EC50 was no more than 1000 nM.
Turning to `Cc1cc(C(=O)Nc2ccc(-c3nnc(NCCCN4CCCCC4)o3)cc2)no1` [Example 183, 5-methyl-N-[4-(5-{[3-(1-piperidinyl)propyl]amino}-1,3,4-oxadiazol-2-yl)phenyl]-3-isoxazolecarboxamide], the EC50 was no more than 1000 nM.
On to `O=C(Nc1ccc(-c2nnc(NCCCN3CCCCC3)o2)cc1)c1ccco1` [Example 185, N-[4-(5-{[3-(1-piperidinyl)propyl]amino}-1,3,4-oxadiazol-2-yl)phenyl]-2-furancarboxamide], for which the EC50 was no more than 1000 nM.
For `CCOc1cc(NC(=O)C2CCCCC2)ccc1-c1nnc(NCCCN2CCCCC2)o1` [Example 189, N-[3-(ethyloxy)-4-(5-{[3-(1-piperidinyl)propyl]amino}-1,3,4-oxadiazol-2-yl)phenyl]cyclohexane-carboxamide], the EC50 is no more than 1000 nM.
On the same count and under the same terms, the result for `CCOc1cc(NC(=O)c2ccccc2)ccc1-c1nnc(NCCCN2CCCCC2)o1` [Example 190, N-[3-(ethyloxy)-4-(5-{[3-(1-piperidinyl)propyl]amino}-1,3,4-oxadiazol-2-yl)phenyl]benzamide] reads no more than 100 nM; that for `O=C(Nc1ccc(-c2nnc(NCCCN3CCCCC3)o2)cc1)C1CCOCC1` [Example 193, N-[4-(5-{[3-(1-piperidinyl)propyl]amino}-1,3,4-oxadiazol-2-yl)phenyl]tetrahydro-2H-pyran-4-carboxamide], no more than 1000 nM; that for `O=C(Nc1ccc(-c2nnc(NCCCN3CCOCC3)o2)cc1)c1c(F)cccc1F` [Example 194, 2,6-Difluoro-N-[4-(5-{[3-(4-morpholinyl)propyl]amino}-1,3,4-oxadiazol-2-yl)phenyl]benzamide], no more than 1000 nM.
Regarding `O=C(Nc1ccc(-c2nnc(NCCCN3CCOCC3)o2)cc1)c1cccc(F)c1` [Example 195, 3-Fluoro-N-[4-(5-{[3-(4-morpholinyl)propyl]amino}-1,3,4-oxadiazol-2-yl)phenyl]benzamide], the EC50 was no more than 1000 nM.
Still for that read-out and setting: the value for `CCCC(=O)Nc1ccc(-c2nnc(NCCCN3CCOCC3)o2)c(OC)c1` [Example 199, N-[3-(Methyloxy)-4-(5-{[3-(4-morpholinyl)propyl]amino}-1,3,4-oxadiazol-2-yl)phenyl]butanamide] was no more than 1000 nM; that for `CCCC(=O)Nc1ccc(-c2nnc(NCCCN(CC)CC)o2)c(OC)c1` [Example 200, N-[4-(5-{[3-(Diethylamino)propyl]amino}-1,3,4-oxadiazol-2-yl)-3-(methyloxy)phenyl]butanamide] was no more than 1000 nM; that for `CCN(CC)CCCNc1nnc(-c2ccc(NC(=O)c3ccc(F)cc3)cc2OC)o1` [Example 202, N-[4-(5-{[3-(Diethylamino)propyl]amino}-1,3,4-oxadiazol-2-yl)-3-(methyloxy)phenyl]-4-fluorobenzamide] was no more than 1000 nM.
On to `CCN(CC)CCCNc1nnc(-c2ccc(NC(=O)c3cccc(F)c3)cc2OC)o1` [Example 203, N-[4-(5-{[3-(Diethylamino)propyl]amino}-1,3,4-oxadiazol-2-yl)-3-(methyloxy)phenyl]-3-fluorobenzamide], for which the EC50 was no more than 1000 nM.
On the same count and under the same terms, the value for `COc1cc(NC(=O)c2cccc(F)c2)ccc1-c1nnc(NCCCN2CCOCC2)o1` [Example 204, 3-Fluoro-N-[3-(methyloxy)-4-(5-{[3-(4-morpholinyl)propyl]amino}-1,3,4-oxadiazol-2-yl)phenyl]benzamide] was no more than 1000 nM; that for `CCN(CC)CCCNc1nnc(-c2ccc(NC(=O)c3cccc(F)c3)cc2)o1` [Example 209, N-[4-(5-{[3-(diethylamino)propyl]amino}-1,3,4-oxadiazol-2-yl)phenyl]-3-fluorobenzamidetrifluoroacetate] was no more than 1000 nM; that for `CCN(CC)CCCNc1nnc(-c2ccc(NC(=O)c3ccc(OC)cc3)cc2OC)o1` [Example 225, N-[4-(5-{[3-(diethylamino)propyl]amino}-1,3,4-oxadiazol-2-yl)-3-(methyloxy)phenyl]-4-(methyloxy)benzamidetrifluoroacetate] was no more than 1000 nM.
Turning to `COc1cc(NC(=O)c2c(F)cccc2F)ccc1-c1nnc(NCCCN2CCOCC2)o1` [Example 226, 2,6-difluoro-N-[3-(methyloxy)-4-(5-{[3-(4-morpholinyl)propyl]amino}-1,3,4-oxadiazol-2-yl)phenyl]benzamidetrifluoroacetate], the EC50 was no more than 1000 nM.
Consider `COc1cc(NC(=O)CC(C)C)ccc1-c1nnc(NCCCN2CCOCC2)o1` [Example 229, 3-methyl-N-[3-(methyloxy)-4-(5-{[3-(4-morpholinyl)propyl]amino}-1,3,4-oxadiazol-2-yl)phenyl]butanamidetrifluoroacetate], for which the EC50 is no more than 1000 nM.
With `CCN(CC)CCCNc1nnc(-c2ccc(NC(=O)CC(C)C)cc2OC)o1` [Example 230, N-[4-(5-{[3-(diethylamino)propyl]amino}-1,3,4-oxadiazol-2-yl)-3-(methyloxy)phenyl]-3-methylbutanamidetrifluoroacetate], the EC50 was no more than 1000 nM.
As for `CCN(CC)CCCNc1nnc(-c2ccc(NC(=O)C3CC3)cc2OC)o1` [Example 231, N-[4-(5-{[3-(diethylamino)propyl]amino}-1,3,4-oxadiazol-2-yl)-3-(methyloxy)phenyl]cyclopro-panecarboxamidetrifluoroacetate], the EC50 was no more than 1000 nM.
`COc1cc(NC(=O)C2CCCC2)ccc1-c1nnc(NCCCN2CCOCC2)o1` [Example 234, N-[3-(methyloxy)-4-(5-{[3-(4-morpholinyl)propyl]amino}-1,3,4-oxadiazol-2-yl)phenyl]cyclopentane-carboxamidetrifluoroacetate]: the concentration for a half-maximal effect (EC50) was no more than 1000 nM.
Regarding `CCN(CC)CCCNc1nnc(-c2ccc(NC(=O)C3CCCC3)cc2OC)o1` [Example 235, N-[4-(5-{[3-(diethylamino)propyl]amino}-1,3,4-oxadiazol-2-yl)-3-(methyloxy)phenyl]cyclo-pentanecarboxamidetrifluoroacetate], the EC50 is no more than 1000 nM.
As to `CN(C)CCCN(C)c1nnc(-c2ccc(NC(=O)c3ccccc3F)cc2)o1` [N-(4-{5-[[3-(dimethylamino)propyl](methyl)amino]-1,3,4-oxadiazol-2-yl}phenyl)-2-fluorobenzamide], the “activity in the alpha 7 assay” value (alpha 7 assay described in the Examples) is “not found to have activity”.

As usually defined, the EC50 is the concentration giving half of the maximal effect.

Source of the values: patent publication US20090105217A1, “2-PHENYL-5-AMINO-1,3,4-OXADIAZOLES AND THEIR USE AS NICOTINIC ACETYLCHOLINE RECEPTOR LIGANDS” (priority 2007, published 2009).
